Laboratory results reported in US20120129875A1, “SUBSTITUTED QUINAZOLINES AS FUNGICIDES” (SYNGENTA CROP PROTECTION, LLC, priority 2009, published 2012).

Legend:
Assay type in all cases: in vivo
[1] = system: Alternaria solani; experiment: Alternaria solani / tomato / preventative (Alternaria on tomato); conditions: tomato plants cv. Roter Gnom, inoculated two days after application, vs untreated control, read-out: disease control
Experimental: Alternaria solani/Tomato/Preventative (Alternaria on Tomato) 4-week old tomato plants cv. Roter Gnom are treated with the formulated test compound in a spray chamber. The test plants are inoculated by spraying them with a spore suspension two days after application. The inoculated test plants are incubated at 22/18° C. (day/night) and 95% rh in a greenhouse and the percentage leaf area covered by disease is assessed when an appropriate level of disease appears on untreated check plants (5-7 days after application).

[2] = system: Pyrenophora teres (Helminthosporium teres); experiment: Pyrenophora teres (Helminthosporium teres) / barley / preventative (net blotch on barley); conditions: barley plants cv. Regina, inoculated 2 days after application, vs untreated control, read-out: disease control
Experimental: Pyrenophora teres (Helminthosporium teres)/Barley/Preventative (Net Blotch on Barley) 1-week old barley plants cv. Regina are treated with the formulated test compound in a spray chamber. The test plants are inoculated by spraying them with a spore suspension 2 days after application. The inoculated test plants are incubated at 20° C. and 95% rh and the percentage leaf area covered by disease is assessed when an appropriate level of disease appears on untreated check plants (5-7 days after application).

[3] = system: Mycosphaerella graminicola (Septoria tritici); experiment: Mycosphaerella graminicola (Septoria tritici) / wheat / preventative (Septoria tritici leaf spot on wheat); conditions: Zymoseptoria tritici, wheat plants cv. Riband, inoculated one day after application, vs untreated control, read-out: disease control
Experimental: Mycosphaerella graminicola (Septoria tritici)/Wheat/Preventative (Septoria tritici Leaf Spot on Wheat) 2-week old wheat plants cv. Riband are treated with the formulated test compound in a spray chamber. The test plants are inoculated by spraying a spore suspension on them one day after application. After an incubation period of 1 day at 22° C./21° C. (day/night) and 95% rh, the test plants are kept at 22° C./21° C. (day/night) and 70% rh in a greenhouse. The percentage leaf area covered by disease is assessed when an appropriate level of disease appears on untreated check plants (16-19 days after application).

[4] = system: Plasmopara viticola; experiment: Plasmopara viticola / grape / preventative (grape downy mildew); conditions: grape seedlings cv. Gutedel, inoculated one day after application, vs untreated control, read-out: disease control
Experimental: Plasmopara viticola/Grape/Preventative (Grape Downy Mildew)
5-week old grape seedlings cv. Gutedel are treated with the formulated test compound in a spray chamber. The test plants are inoculated by spraying a sporangia suspension on their lower leaf surface one day after application. The inoculated test plants are incubated at 22° C. and 100% rh in a greenhouse and the percentage leaf area covered by disease is assessed when an appropriate level of disease appears on untreated check plants (6-8 days after application).

[5] = system: Botryotinia fuckeliana (Botrytis cinerea); experiment: Botryotinia fuckeliana (Botrytis cinerea) / tomato / preventative (Botrytis on tomato); conditions: tomato plants cv. Roter Gnom, inoculated two days after application, vs untreated control, read-out: disease control
Experimental: Botryotinia fuckeliana (Botrytis cinerea)/Tomato/Preventative (Botrytis on Tomato) 4-week old tomato plants cv. Roter Gnom are treated with the formulated test compound in a spray chamber. The test plants are inoculated by spraying them with a spore suspension two days after application. The inoculated test plants are incubated at 20° C. and 95% rh in a greenhouse and the percentage leaf area covered by disease is assessed when an appropriate level of disease appears on untreated check plants (5-6 days after application).

[6] = system: Erysiphe necator (Uncinula necator); experiment: Erysiphe necator (Uncinula necator) / grape / preventative (powdery mildew on grape); conditions: grape seedlings cv. Gutedel, inoculated 1 day after application, vs untreated control, read-out: disease control
Experimental: Erysiphe necator (Uncinula necator)/Grape/Preventative (Powdery Mildew on Grape) 5-week old grape seedlings cv. Gutedel are treated with the formulated test compound in a spray chamber. The test plants are inoculated by shaking plants infected with grape powdery mildew above them 1 day after application. The inoculated test plants are incubated at 24/22° C. (day/night) and 70% rh under a light regime of 14/10 h (light/dark) and the percentage leaf area covered by disease is assessed when an appropriate level of disease appears on untreated check plants (7-9 days after application).

[7] = system: Mycosphaerella arachidis (Cercospora arachidicola); experiment: Mycosphaerella arachidis (Cercospora arachidicola) / peanut / preventative; conditions: peanut plants cv. Georgia Green, inoculated one day after application, vs untreated control, read-out: disease control
Experimental: Mycosphaerella arachidis (Cercospora arachidicola)/Peanut/Preventative 3-week old peanut plants cv. Georgia Green are treated with the formulated test compound in a spray chamber. The test plants are inoculated by spraying them with a spore suspension on their lower leaf surface one day after application. After an incubation period of 4 days under a plastic hood at 23° C. and 100% rh, the test plants are kept at 23° C./20° C. (day/night) and 70% rh in a greenhouse. The percentage leaf area covered by disease is assessed when an appropriate level of disease appears on untreated check plants (12-14 days after application).

[8] = system: Phaeosphaeria nodorum (Septoria nodorum); experiment: Phaeosphaeria nodorum (Septoria nodorum) / wheat / leaf disc preventative (glume blotch); conditions: Parastagonospora nodorum, foliar, wheat leaf segments cv. Kanzler on agar, inoculated 2 days after application, vs untreated control, read-out: disease control
Experimental: Phaeosphaeria nodorum (Septoria nodorum)/Wheat/Leaf Disc Preventative (Glume Blotch) Wheat leaf segments cv. Kanzler are placed on agar in a multiwell plate (24-well format) and sprayed with the formulated test compound diluted in water. The leaf disks are inoculated with a spore suspension of the fungus 2 days after application. The inoculated test leaf disks are incubated at 20° C. and 75% rh under a light regime of 12 h light/12 h darkness in a climate cabinet and the activity of a compound is assessed as percent disease control compared to untreated when an appropriate level of disease damage appears in untreated check leaf disks (5-7 days after application).

Measured: pest or weed control at 200 ppm

Clc1ccccc1Cc1cccc(-c2ncc3ccccc3n2)n1 [6/16]
not listed: [7] | [8]
≥ 80%: all other assays above

Cc1ccc(-c2nc(-c3ncc4ccccc4n3)ccc2C)cc1F [3/94]
≥ 80%: [1] | [2] | [3] | [4] | [5]

Cc1ccc(-c2ncc3ccccc3n2)nc1-c1ccc(Cl)cc1 [3/74]
≥ 80%: [1] | [2] | [3] | [4]

COc1ccc(-c2nc(-c3ncc4ccccc4n3)ccc2C)c(C)c1 [3/53]
not listed: [3] | [8]
≥ 80%: all other assays above

Cc1ccc(-c2nc(-c3ncc4ccccc4n3)ccc2C)cc1Cl [3/21]
≥ 80%: [1] | [4] | [5] | [6]

COc1ccc(-c2nc(-c3ncc4ccccc4n3)ccc2C)cc1C [3/93]
≥ 80%: [1] | [2] | [3] | [4]

Cc1ccc(-c2ncc3ccccc3n2)nc1-c1ccccc1F [3/82]
≥ 80%: [1] | [2] | [3] | [4]

c1cc(-c2ncc3ccccc3n2)nc(C2CC2)c1 [10/7]
≥ 80%: [7] | [4] | [5] | [6]

Cc1ccc(C)c(-c2cccc(-c3ncc4ccccc4n3)n2)c1 [2/54]
≥ 80%: [1] | [7] | [2] | [4] | [6]

Cc1nc(-c2cccc(Cc3ccccc3)n2)nc2ccccc12 [12/6]
≥ 80%: [8] | [1] | [6]

COc1ccc(Cl)cc1-c1cccc(-c2ncc3ccccc3n2)n1 [2/68]
≥ 80%: [1] | [4] | [6]

Cc1ccc(Cc2cccc(-c3ncc4ccccc4n3)n2)cc1 [6/10]
≥ 80%: [3]

Cc1ccc(-c2ncc3ccccc3n2)nc1-c1cccc(F)c1F [3/38]
not listed: [3] | [8]
≥ 80%: all other assays above

COc1cccc(Cc2cccc(-c3ncc4ccccc4n3)n2)c1 [6/15]
≥ 80%: [2] | [3] | [4]

Cc1ccc(-c2ncc3ccccc3n2)nc1-c1ccc(F)cc1F [3/83]
≥ 80%: [1] | [2] | [3] | [4] | [5]

Cc1ccc(-c2ncc3ccccc3n2)nc1-c1ccc(F)cc1O [3/101]
≥ 80%: [1] | [2] | [3] | [4] | [5]

Cc1cccc(Cc2cccc(-c3ncc4ccccc4n3)n2)c1F [6/12]
not listed: [4] | [8]
≥ 80%: all other assays above

Clc1ccc(Cc2cccc(-c3ncc4ccccc4n3)n2)cc1 [6/18]
≥ 80%: [1] | [2] | [3]

Cc1ccc(-c2ncc3ccccc3n2)nc1Cc1cccc(C)c1F [7/7]
≥ 80%: [1] | [2] | [4] | [6]

Cc1ccccc1Cc1cccc(-c2ncc3ccccc3n2)n1 [6/19]
≥ 80%: [1] | [2] | [3] | [4]

Cc1cccc(-c2ncc3ccccc3n2)n1 [10/4]
≥ 80%: [7] | [6]

Cc1ccc(F)c(-c2nc(-c3ncc4ccccc4n3)ccc2C)c1 [3/9]
not listed: [6] | [8]
≥ 80%: all other assays above

Cc1ccc(-c2nc(C)c3ccccc3n2)nc1-c1ccccc1 [11/8, 4-Methyl-2-(5-methyl-6-phenyl-pyridin-2-yl)-quinazoline]
not listed: [5] | [8]
≥ 80%: all other assays above
